Data reported in patent US20230114728A1 (Venatorx Pharmaceuticals, Inc., priority 2019, published 2023).
Values after ≈ are worked out from the molar mass of the structure shown.

Legend:
Test in all cases: Broth microdilution MIC in CAMHB
Type in all cases: cell-based
[1] = test system: A. baumannii ATCC 19606; conditions: Acinetobacter baumannii, ATCC19606; MHB; read-out: Minimum Inhibitory Concentration, A. baumannii ATCC 19606
How it was run: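 Per CLSI broth microdilution, colonies were grown 3-5 h at 37° C in cation-adjusted Mueller Hinton broth, then diluted to a starting inoculum of 2-8×10^5 CFU/mL against 2-fold serial compound dilutions. Plates were incubated 16-20 h at 37° C, and MIC was read visually as the lowest concentration with no growth.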

[2] = test system: E. coli 901C; conditions: Escherichia coli; E. coli 901C (hyper-permeable); MHB; read-out: Minimum Inhibitory Concentration, E. coli 901C
How it was run: (§1)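 CLSI microdilution; CAMHB; inoculum 2-8×10^5 CFU/mL from 3-5 h 37° C culture; 2-fold compound series; 16-20 h, 37° C; MIC = lowest well without visible growth.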

[3] = test system: E. coli AG100A; conditions: Escherichia coli, read-out: Minimum Inhibitory Concentration, E. coli AG100A
How it was run: as §1

[4] = test system: E. coli AG100; conditions: Escherichia coli; E. coli AG100 (wild-type parent); MHB; read-out: Minimum Inhibitory Concentration, E. coli AG100
How it was run: as §1

[5] = test system: E. coli ATCC 25922; conditions: Escherichia coli, ATCC25922; E. coli ATCC 25922; MHB; read-out: Minimum Inhibitory Concentration, E. coli 25922
How it was run: as §1

[6] = test system: E. coli D22; conditions: Escherichia coli; E. coli D22 (hyper-permeable); MHB; read-out: Minimum Inhibitory Concentration, E. coli D22
How it was run: as §1

[7] = test system: K. pneumoniae 848844 producing SHV-11 and KPC-2; conditions: Klebsiella pneumoniae, read-out: Minimum Inhibitory Concentration, K. pneumoniae 848844
How it was run: as §1

[8] = test system: K. pneumoniae SI-117 producing VIM-1; conditions: Klebsiella pneumoniae, read-out: Minimum Inhibitory Concentration, K. pneumoniae SI-117
How it was run: as §1

[9] = test system: K. pneumoniae UMM producing SHV-5 and KPC-2; conditions: Klebsiella pneumoniae, read-out: Minimum Inhibitory Concentration, K. pneumoniae UMM
How it was run: as §1

[10] = test system: P. aeruginosa (ΔmexAB-oprM); conditions: Pseudomonas aeruginosa, read-out: Minimum Inhibitory Concentration, P. aeruginosa ΔmexAB-OprM
How it was run: as §1

[11] = test system: P. aeruginosa ATCC 27853; conditions: Pseudomonas aeruginosa, ATCC27853; MHB; read-out: Minimum Inhibitory Concentration, P. aeruginosa ATCC 27853
How it was run: as §1

[12] = test system: P. aeruginosa ATCC 35151; conditions: Pseudomonas aeruginosa, ATCC35151; MHB; hyper-permeable strain; read-out: Minimum Inhibitory Concentration, P. aeruginosa ATCC 35151
How it was run: as §1

NS(=O)(=O)NC(C(=O)N[C@H]1Cc2ccc(F)c(C(=O)O)c2OB1O)c1ncc(O)cc1F (stereo partly drawn) [Example 43, (3R)-7-fluoro-3-(2-(3-fluoro-5-hydroxypyridin-2-yl)-2-(sulfamoylamino)acetamido)-2-hydroxy-3,4-dihydro-2H-benzo[e][1,2]oxaborinine-8-carboxylic acid]
MIC [1]: > 128 µg/mL
MIC [2]: > 128 µg/mL
MIC [3]: > 128 µg/mL
MIC [4]: > 128 µg/mL
MIC [5]: > 128 µg/mL
MIC [6]: > 128 µg/mL
MIC [7]: > 128 µg/mL
MIC [8]: > 128 µg/mL
MIC [9]: > 128 µg/mL
MIC [10]: > 128 µg/mL
MIC [11]: > 128 µg/mL
MIC [12]: 2 to 4 µg/mL (≈ 4.24 to 8.47 µM)

N=C(N)NCCN1CCN(C(=O)NC(C(=O)N[C@H]2Cc3ccc(F)c(C(=O)O)c3OB2O)c2ncc(O)cc2F)C(=O)C1=O (stereo partly drawn) [Example 51, (3R)-7-fluoro-3-(2-(3-fluoro-5-hydroxypyridin-2-yl)-2-(4-(2-guanidinoethyl)-2,3-dioxopiperazine-1-carboxamido)acetamido)-2-hydroxy-3,4-dihydro-2H-benzo[e][1,2]oxaborinine-8-carboxylic acid]
MIC [1]: > 128 µg/mL
MIC [2]: 2 to 4 µg/mL (≈ 3.23 to 6.47 µM)
MIC [3]: 8 to 16 µg/mL (≈ 12.9 to 25.9 µM)
MIC [4]: 32 to 64 µg/mL (≈ 51.8 to 104 µM)
MIC [5]: 32 to 64 µg/mL (≈ 51.8 to 104 µM)
MIC [6]: 8 to 16 µg/mL (≈ 12.9 to 25.9 µM)
MIC [7]: 32 to 64 µg/mL (≈ 51.8 to 104 µM)
MIC [8]: 32 to 64 µg/mL (≈ 51.8 to 104 µM)
MIC [9]: 8 to 16 µg/mL (≈ 12.9 to 25.9 µM)
MIC [10]: 8 to 16 µg/mL (≈ 12.9 to 25.9 µM)
MIC [11]: > 128 µg/mL
MIC [12]: 0.5 to 1 µg/mL (≈ 0.809 to 1.62 µM)

CCN1CCN(C(=O)NC(C(=O)N[C@H]2Cc3cccc(C(=O)O)c3OB2O)c2ccc(N)c(F)c2)C(=O)C1=O (stereo partly drawn) [Example 50, (3R)-3-(2-(4-amino-3-fluorophenyl)-2-(4-ethyl-2,3-dioxopiperazine-1-carboxamido)acetamido)-2-hydroxy-3,4-dihydro-2H-benzo[e][1,2]oxaborinine-8-carboxylic acid]
MIC [1]: > 128 µg/mL
MIC [2]: < 0.25 µg/mL
MIC [3]: 2 to 4 µg/mL (≈ 3.69 to 7.39 µM)
MIC [4]: 32 to 64 µg/mL (≈ 59.1 to 118 µM)
MIC [5]: 32 to 64 µg/mL (≈ 59.1 to 118 µM)
MIC [6]: 2 to 4 µg/mL (≈ 3.69 to 7.39 µM)
MIC [7]: > 128 µg/mL
MIC [8]: > 128 µg/mL
MIC [9]: 32 to 64 µg/mL (≈ 59.1 to 118 µM)
MIC [10]: 2 to 4 µg/mL (≈ 3.69 to 7.39 µM)
MIC [11]: > 128 µg/mL
MIC [12]: 0.5 to 1 µg/mL (≈ 0.924 to 1.85 µM)

CCN1CCN(C(=O)NC(C(=O)N[C@H]2Cc3cccc(C(=O)O)c3OB2O)c2ccc(O)c(NS(C)(=O)=O)c2)C(=O)C1=O (stereo partly drawn) [Example 22, (3R)-3-(2-(4-ethyl-2,3-dioxopiperazine-1-carboxamido)-2-(4-hydroxy-3-(methylsulfonamido)phenyl)acetamido)-2-hydroxy-3,4-dihydro-2H-benzo[e][1,2]oxaborinine-8-carboxylic acid]
MIC [1]: > 128 µg/mL
MIC [2]: < 0.25 µg/mL
MIC [3]: 2 to 4 µg/mL (≈ 3.24 to 6.48 µM)
MIC [4]: 32 to 64 µg/mL (≈ 51.8 to 104 µM)
MIC [5]: 32 to 64 µg/mL (≈ 51.8 to 104 µM)
MIC [6]: 2 to 4 µg/mL (≈ 3.24 to 6.48 µM)
MIC [7]: > 128 µg/mL
MIC [8]: 32 to 64 µg/mL (≈ 51.8 to 104 µM)
MIC [9]: 32 to 64 µg/mL (≈ 51.8 to 104 µM)
MIC [10]: 8 to 16 µg/mL (≈ 13 to 25.9 µM)
MIC [11]: > 128 µg/mL
MIC [12]: 0.5 to 1 µg/mL (≈ 0.81 to 1.62 µM)

CCN1CCN(C(=O)NC(C(=O)N[C@H]2Cc3cccc(C(=O)O)c3OB2O)c2ncc(C(=O)O)cc2F)C(=O)C1=O (stereo partly drawn) [Example 20, 6-(2-(((R)-8-carboxy-2-hydroxy-3,4-dihydro-2H-benzo[e][1,2]oxaborinin-3-yl)amino)-1-(4-ethyl-2,3-dioxopiperazine-1-carboxamido)-2-oxoethyl)-5-fluoronicotinic acid]
MIC [1]: > 128 µg/mL
MIC [2]: < 0.25 µg/mL
MIC [3]: 8 to 16 µg/mL (≈ 14 to 28 µM)
MIC [4]: 32 to 64 µg/mL (≈ 56 to 112 µM)
MIC [5]: > 128 µg/mL
MIC [6]: 2 to 4 µg/mL (≈ 3.5 to 7 µM)
MIC [7]: > 128 µg/mL
MIC [8]: > 128 µg/mL
MIC [9]: 32 to 64 µg/mL (≈ 56 to 112 µM)
MIC [10]: 8 to 16 µg/mL (≈ 14 to 28 µM)
MIC [11]: > 128 µg/mL
MIC [12]: 0.5 to 1 µg/mL (≈ 0.875 to 1.75 µM)

CCN1CCN(C(=O)NC(C(=O)N[C@H]2Cc3cccc(C(=O)O)c3OB2O)c2ccc(O)c(NS(N)(=O)=O)c2)C(=O)C1=O (stereo partly drawn) [Example 30, (3R)-3-(2-(4-ethyl-2,3-dioxopiperazine-1-carboxamido)-2-(4-hydroxy-3-(sulfamoylamino)phenyl)acetamido)-2-hydroxy-3,4-dihydro-2H-benzo[e][1,2]oxaborinine-8-carboxylic acid]
MIC [1]: > 128 µg/mL
MIC [2]: 0.5 to 1 µg/mL (≈ 0.809 to 1.62 µM)
MIC [3]: 2 to 4 µg/mL (≈ 3.23 to 6.47 µM)
MIC [4]: 32 to 64 µg/mL (≈ 51.7 to 103 µM)
MIC [5]: 8 to 16 µg/mL (≈ 12.9 to 25.9 µM)
MIC [6]: 2 to 4 µg/mL (≈ 3.23 to 6.47 µM)
MIC [7]: > 128 µg/mL
MIC [8]: 32 to 64 µg/mL (≈ 51.7 to 103 µM)
MIC [9]: 32 to 64 µg/mL (≈ 51.7 to 103 µM)
MIC [10]: 8 to 16 µg/mL (≈ 12.9 to 25.9 µM)
MIC [11]: > 128 µg/mL
MIC [12]: 0.5 to 1 µg/mL (≈ 0.809 to 1.62 µM)
